Experimental data published in PubChem BioAssay (NCI).
Where “and” joins values, the source holds several entries; their conditions need not be identical. Equal values may be shown once.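 Growth conditions: 96-well plates. Treatment: test compound, 48 hours, 5 concentrations. Analysis: linear interpolation between bracketing concentrations; unreached endpoints set to highest concentration. GI50 marks 50% less growth. TGI: total growth inhibition.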

What was measured:
Assay in all cases: NCI-60 cell line screen, 48 h
COLO 205 colon = system: COLO 205 colon
IGROV1 ovarian = system: IGROV1 ovarian
MOLT-4 leukemia = system: MOLT-4 leukemia
NCI-H226 lung = system: NCI-H226 lung
SF-268 CNS = system: SF-268 CNS
SK-OV-3 ovarian = system: SK-OV-3 ovarian
SR leukemia = system: SR leukemia
U251 CNS = system: U251 CNS
PC-3 prostate = system: PC-3 prostate
T-47D breast = system: T-47D breast

Row | SMILES | TGI (COLO 205 colon) | TGI (IGROV1 ovarian) [µM] | TGI (MOLT-4 leukemia) [µM] | TGI (NCI-H226 lung) [µM] | TGI (SF-268 CNS) [µM] | TGI (SK-OV-3 ovarian) [µM] | TGI (SR leukemia) [µM] | TGI (U251 CNS) | TGI (PC-3 prostate) | TGI (T-47D breast) [µM] | GI50 (COLO 205 colon) [µM] | GI50 (IGROV1 ovarian) [µM] | GI50 (MOLT-4 leukemia) [µM] | GI50 (NCI-H226 lung) [µM] | GI50 (SF-268 CNS) [µM] | GI50 (SK-OV-3 ovarian) [µM] | GI50 (U251 CNS) [µM] | GI50 (PC-3 prostate) [µM] | GI50 (SR leukemia) [µM] | GI50 (T-47D breast) [µM]
1 | Cc1c(C(=O)/C=C/c2ccc([N+](=O)[O-])cc2)[n+](=O)c2ccccc2n1[O-] | > 100 µM | > 100 | 82.2 | > 100 | > 100 | > 100 | > 100 | > 100 µM | – | – | – | – | – | – | – | – | – | – | – | –
2 | O=C(CCl)N1CCN(c2ccccn2)CC1 | 47.4 µM | 45.7 | > 100 | – | 63.8 | > 100 | > 100 | 33.9 µM | > 100 µM | 31.7 | – | – | – | – | – | – | – | – | – | –
3 | c1ccc(-c2sc(-c3ccccc3)c3c2C(c2ccccc2)c2c(-c4ccccc4)sc(-c4ccccc4)c2C3c2ccccc2)cc1 (stereo not given) | > 100 µM | > 100 | – | > 100 | > 100 | > 100 | > 100 | > 100 µM | – | – | – | – | – | – | – | – | – | – | – | –
4 | O=c1[nH]c(-c2ccccc2)nc2cc([N+](=O)[O-])c(/C(Cl)=C/c3ccccc3)cc12 | 79.9 µM | > 100 | > 100 | > 100 | > 100 | 72.2 | > 100 | > 100 µM | – | – | – | – | – | – | – | – | – | – | – | –
5 | [CH3][Ge]([CH3])([CH2]CC#N)[S]c1ccccc1 | 52.4 µM | 1.28 | 17.6 | 33.4 | 51.6 | 55.9 | – | 22.6 µM | – | – | 17.5 | 0.371 | 3.58 | 13.1 | 18.6 | 21.7 | 9.85 | – | – | –
6 | C/C(=C\CNc1ncnc2c1ncn2C1CCCCO1)COP(=O)(O)O (stereo not given) | > 100 µM | > 100 | > 100 | > 100 | > 100 | > 100 | > 100 | > 100 µM | – | – | – | – | – | – | – | – | – | – | – | –
7 | NNC(=O)N/N=C(/CC1(O)C(=O)Nc2ccc(Br)cc21)c1ccccc1 (stereo not given) | – | > 100 | 44.2 | > 100 | > 100 | > 100 | 87.8 | – | – | – | – | – | – | – | – | – | – | – | – | –
8 | CCCN(CCCC(NC(C)=O)C(=O)NCc1ccccc1)C(=O)N(C)N=O (stereo not given) | > 100 µM | > 100 | > 100 | > 100 | > 100 | > 100 | – | > 100 µM | – | – | – | – | – | – | – | – | – | – | – | –
9 | O=C1C=C(Nc2cc(Cl)ccc2Cl)c2ccccc2C1=O | > 100 µM | > 100 | – | 47.8 | > 100 | > 100 | – | > 100 µM | – | – | – | – | – | – | – | – | – | – | – | –
10 | CCP(C)(=O)CC | > 100 µM | > 100 | > 100 | > 100 | > 100 | > 100 | > 100 | > 100 µM | – | – | – | – | – | – | – | – | – | – | – | –
11 | CCOC(=O)C1(C)C2=CC=C(O2)C(C)(C)C2=CC=C(O2)C(C)(C)C2=CC=C(O2)C(C)(C)C2=CC=C1O2 | > 100 µM | > 100 | > 100 | > 100 | > 100 | > 100 | > 100 | > 100 µM | – | – | – | – | – | – | – | – | – | – | – | –
12 | Cc1cc(NS(=O)(=O)c2ccc(NC(=O)c3cccc4c(Nc5ccc(S(=O)(=O)Nc6cc(C)on6)cc5)c5ccc(Cl)cc5nc34)cc2)no1 | > 100 µM | > 100 | > 100 | – | > 100 | > 100 | – | > 100 µM | – | – | – | – | – | – | – | – | – | – | – | –
13 | CCN(CC)Cc1cc(Nc2ccnc3ccc(OC)cc23)ccc1O | 3.67 µM | – | 16.8 | 21.7 | 19.8 | 34.5 | 7.77 | 17.9 µM | 31.6 µM | 44.7 | 1.63 | – | 2.98 | 4.15 | 3.61 | 7.15 | 4.46 | 4.49 | 2.85 | 5.69
14 | N#Cc1c(-c2ccccc2)nc(SCC(O)CN2CCOCC2)nc1N1CCOCC1 (stereo not given) | 84.6 µM | – | > 100 | > 100 | > 100 | 12 | > 100 | > 100 µM | 7.7 µM | 6.03 | 29.6 | – | 16.1 | 7.12 | 17.8 | 1.87 | 24.4 | 2.42 | 32.2 | 1.33
15 | CCN(CC)CCOc1ccc2c(-c3ccccc3)c(-c3ccc(OC)cc3)c(=O)oc2c1 | 3.72 µM | – | 8.27 | 32.5 | 21.7 | 23 | 4.33 | 20.9 µM | 18.3 µM | 15.9 | 1.85 | – | 2.82 | 13.6 | 8.4 | 11 | 4.51 | 4.19 | 1.62 | 3.57
16 | O=C(CC(=O)N1N=C(n2ccc3ccccc32)CC1c1ccccc1)Nc1ccccc1Cl (stereo not given) | > 100 µM | > 100 | > 100 | – | > 100 | > 100 | – | > 100 µM | – | – | – | – | – | – | – | – | – | – | – | –
17 | O=C1NC(c2cccc3ccccc23)Nc2ccc(Cl)cc21 (stereo not given) | 0.0175 µM and 0.0795 µM | 32.9 | 0.00987 | – | 23.3 | – | 0.000654 | 0.022 µM and 0.0266 µM | 0.0148 µM and 0.0143 µM | 68.5 | – | – | – | – | – | – | – | – | – | –
18 | CCCCN(CCCC)CC(C(=O)Nc1ccc([N+](=O)[O-])cc1[N+](=O)[O-])/C(C)=N\NC(=O)c1ccncc1 (stereo not given) | > 100 µM | > 100 | > 100 | – | > 100 | > 100 | – | > 100 µM | – | – | – | – | – | – | – | – | – | – | – | –
19 | C=C1C2CCCC1C1(S(C)(=O)=O)CCCCC21O (stereo not given) | > 100 µM | > 100 | > 100 | > 100 | – | > 100 | > 100 | > 100 µM | – | – | – | – | – | – | – | – | – | – | – | –
20 | COc1cccc(N2C(=N)/C(=C3\Nc4ccccc4S3)CC2=O)c1 | > 100 µM | > 100 | > 100 | > 100 | > 100 | > 100 | – | > 100 µM | > 100 µM | > 100 | 9.25 | 7.58 | 2.4 | 38.3 | 5.22 | 1.77 | 3.89 | 3.03 | – | 18.9
21 | NC(N)=NCCCC(Nc1c2ccccc2nc2ccccc12)C(=O)O (stereo not given) | > 100 µM | – | > 100 | > 100 | > 100 | – | > 100 | > 100 µM | – | – | – | – | – | – | – | – | – | – | – | –
